Source: PubChem BioAssay (NCI)
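The concentration for 50% growth inhibition is given as GI50. At the TGI there is no net growth.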

Columns and labels:
Test in all cases: growth of human tumour cells (NCI), 384-well format
MDA-MB-468 breast = tested on: MDA-MB-468 breast
A549 NSCLC = tested on: A549 NSCLC
RXF 393 renal = tested on: RXF 393 renal
UO-31 renal = tested on: UO-31 renal
BT-549 breast = tested on: BT-549 breast
HS 578T breast = tested on: HS 578T breast
MCF7 breast = tested on: MCF7 breast
SN12C renal = tested on: SN12C renal
M14 melanoma = tested on: M14 melanoma
HCT-116 colon = tested on: HCT-116 colon
HCT-15 colon = tested on: HCT-15 colon
SNB-19 CNS = tested on: SNB-19 CNS
A498 renal = tested on: A498 renal

## C[C@@H](c1ccc2nccn2c1)n1nnc2ncc(-c3cnn(C)c3)nc21
MDA-MB-468 breast
  GI50: 22 µM
  TGI: > 100 µM
A549 NSCLC
  GI50: > 100 µM
  TGI: > 100 µM
RXF 393 renal
  GI50: > 75.4 µM
  TGI: > 100 µM
UO-31 renal
  GI50: > 100 µM
  TGI: > 100 µM
BT-549 breast
  GI50: > 100 µM
  TGI: > 100 µM
HS 578T breast
  GI50: > 100 µM
  TGI: > 100 µM
MCF7 breast
  GI50: > 100 µM
  TGI: > 100 µM
SN12C renal
  GI50: > 63 µM
  TGI: > 100 µM
M14 melanoma
  GI50: > 100 µM
  TGI: > 100 µM
HCT-116 colon
  GI50: > 100 µM
  TGI: > 100 µM
HCT-15 colon
  GI50: > 100 µM
  TGI: > 100 µM
SNB-19 CNS
  GI50: > 100 µM
  TGI: > 100 µM
A498 renal
  GI50: > 100 µM
  TGI: > 100 µM
